The text below walks through data of patent US20240140931A1, “TRICYCLIC COMPOUNDS AND USES THEREOF” (HUTCHMED LIMITED, priority 2021, published 2024).

The target of test [1] is Human full-length SHP2 recombinant protein (Homo sapiens (Human), UniProt Q06124). Description: Assay of full-length SHP2 phosphatase activity. It is filed as biochemical. The settings on record: DiFMUP substrate, with activating peptide. The procedure:
Example 2 Assay of Full-Length SHP2 Phosphatase Activity
1. Reagents and Materials • Human full-length SHP2 recombinant protein: BPS Bioscience, Cat #79018; • SHP2 substrate DiFMUP (1 mM): BPS Bioscience, Cat #79769; • SHP2 activating peptide (100 μM): BPS Bioscience, Cat #79319-2; • DTT: Merck, Cat #DTT-RO; • 384-well plate: Corning, Cat #3575; • 96-well plate: Thermo Fisher Scientific, Cat #249952; • Instrument: EnVision 2104, PerkinElmer.
2. Preparation of Reaction Solutions
The test compound was dissolved in DMSO and diluted with DMSO to 100.0 μM, and the compound was further 3-fold diluted with DMSO to: 100.00, 33.33, 11.11, 3.70, 1.23, 0.41, 0.14 and 0.05 μM.
3. Experimental Steps • To the corresponding wells of the 384-well plate was added 2.5 μL of 4× test compound or 2.5 μL of 4% DMSO solution, and centrifugation was carried out at 1000 rpm for 30 seconds. • To the test compound well and positive control well was added 2.5 μL of 4× mixed solution of SHP2 enzyme/activating peptide while to the negative control well was added 2.5 μL of 1× enzymatic reaction buffer; centrifugation was carried out at 1000 rpm for 30 seconds and incubation was carried out at room temperature for 30 minutes. • To each well was added 5 μL of 2×DiFMUP substrate to initiate the enzymatic reaction, then the plate was transiently oscillated and centrifuged at 1000 rpm for 30 seconds, and the 384-well plate was sealed with a sealing membrane and incubated at 25° C. on a low-speed shaker (100 rpm) in the dark for 60 minutes. • The fluorescence value (relative fluorescence units, RFU) of each well was detected on EnVision2104 (excitation: 355 nm, emission: 460 nm).
wherein • the RFU of compound well refers to the fluorescence reading at 460 nm of the well containing the test compounds; • the RFU of negative control well refers to the fluorescence reading at 460 nm of the background well containing 1% DMSO and the enzymatic reaction buffer; • the RFU of positive control well refers to the fluorescence reading at 460 nm of the well containing 1% DMSO and the mixed solution of SHP2 enzyme/activating peptide.
(§1) IC50 values were calculated following formula 205: y=A+((B−A)/(1+((C/X)^D))), by using the XL-Fit 5.0 software.

Test [2] concerns pERK1/2 (Thr202/Tyr204) in Miapaca2 cells. Description: Assay of intracellular pERK1/2 (Thr202/Tyr204) phosphorylation. It is filed as cell-based. The procedure: Example 3 Assay of Intracellular pERK1/2 (Thr202/Tyr204) Phosphorylation
1. Reagents and Materials • pERK1/2 (Thr202/Tyr204) HTRF kit: Cisbio, Cat #64ERKPEH; • Cell line: Miapaca2, ATCC, CRL-1420; • OptiPlate™-384-well plate: PerkinElmer, Cat #6007299; • 96-well plate: Corning, Cat #353072; • Instrument: EnVision2104, PerkinElmer.
2. Preparation of Reaction Solutions • The test compound was dissolved in DMSO and diluted with DMSO to 600.0 μM, and the compound was further 3-fold diluted with DMSO to: 600.0, 200.0, 66.7, 22.2, 7.4, 2.5, 0.82 and 0.27 μM. Then 10 μL of the compound at different dilution concentrations was added to 190 μL of a DMEM medium to prepare a 10× test compound, wherein DMSO was at the concentration of 5% (DMSO was at the final concentration of 0.5%). • 1× cell lysis buffer: 4× cell lysis stock solution (provided by the kit) was diluted 4-fold with deionized water, and then 1% 100× blocking stock solution (provided by the kit) was added thereto. • pERK1/2 detection solution (prepared just before use): the pERK1/2 d2 antibody (provided by the kit) and pERK1/2 Cryptate antibody (provided by the kit) were diluted with the detection solution (provided by the kit) at a ratio of 1:1:38.
3. Experimental Steps • Miapaca2 cells were inoculated into a 96-well plate at a density of 10000 cells/well at 90 μL/well and cultured in a cell incubator at 5% CO2 and 37° C. overnight. • 10 μL of 10× test compound was added to the 90 μL cell culture 96-well plate; to the cell positive control well was added 10 μL of 5% DMSO culture solution; and the plate was cultured in a cell incubator at 5% CO2 and 37° C. for 2 hours. • The medium in the 96-well plate was removed; 50 μL of 1× cell lysis buffer was added to each well; the plate was placed in a microplate shaker; and lysis under shaking was carried out at 900 rpm at room temperature for 1 hour. • 16 μL of the lysis buffer in the 96-well plate was taken and transferred to a 384-well plate, and centrifugation was carried out at 1000 rpm for 30 seconds; then 4 μL of pERK1/2 detection solution was added to each well and centrifugation was carried out at 1000 rpm for 30 seconds; and the 384-well plate was sealed with a sealing membrane and incubated at 25° C. on a low-speed shaker (100 rpm) in the dark for 2 hours. • The fluorescence value (relative fluorescence units, RFU) of each well was detected on EnVision2104 (emission 1: 665 nm, emission 2: 615 nm).
wherein • the fluorescence ratio of compound well refers to the fluorescence ratio of the well containing the test compounds; • the fluorescence ratio of negative control well refers to the fluorescence ratio of the background containing the cell lysis buffer and no Miapaca2 cells; • the fluorescence ratio of positive control well refers to the fluorescence ratio of the well containing 0.5% DMSO and Miapaca2 cells.
as §1

The mark [3] stands for this setting: Homo sapiens, MIA PaCa-2, 2 h, pERK1/2 (Thr202/Tyr204) HTRF.
[4] abbreviates: pERK1/2 (Thr202/Tyr204) HTRF, 2 hours.

Some results are limits rather than exact numbers.

The IC50 is the concentration that inhibits the measured activity by half.

Human full-length SHP2 recombinant protein, sequence (Q06124 whole entry): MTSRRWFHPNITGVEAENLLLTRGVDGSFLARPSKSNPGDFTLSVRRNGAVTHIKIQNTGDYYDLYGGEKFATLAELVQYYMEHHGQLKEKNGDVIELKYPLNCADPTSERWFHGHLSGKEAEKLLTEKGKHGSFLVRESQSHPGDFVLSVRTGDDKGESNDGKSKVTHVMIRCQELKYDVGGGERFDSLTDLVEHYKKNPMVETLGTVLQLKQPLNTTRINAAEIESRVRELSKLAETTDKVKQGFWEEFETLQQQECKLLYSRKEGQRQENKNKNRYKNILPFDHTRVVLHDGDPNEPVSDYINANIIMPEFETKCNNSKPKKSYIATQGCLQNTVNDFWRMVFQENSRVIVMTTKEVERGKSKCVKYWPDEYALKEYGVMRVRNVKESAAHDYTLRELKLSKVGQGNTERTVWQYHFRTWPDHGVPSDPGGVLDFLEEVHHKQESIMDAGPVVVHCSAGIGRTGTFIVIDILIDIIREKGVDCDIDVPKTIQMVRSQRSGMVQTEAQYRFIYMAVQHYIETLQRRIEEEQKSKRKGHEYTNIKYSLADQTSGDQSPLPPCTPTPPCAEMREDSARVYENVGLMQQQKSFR

On to `C#Cc1ccc2c(c1)CC1(CCN(c3nc(N)c(-c4cn(C)c5ncccc45)c(=O)n3C)CC1)[C@@H]2N` [Compound 4, (S)-6-amino-2-(1-amino-5-ethynyl-1,3-dihydrospiro[indene-2,4′-piperidin]-1′-yl)-3-methyl-5-(1-methyl-1H-pyrrolo[2,3-b]pyridin-3-yl)pyrimidin-4(3H)-one], for which the IC50 amounted to 4 nM in test [1] and 160 nM in test [2] (setting [3]).

With `CC#Cc1ccc2c(c1)[C@@H](N)C1(CCN(c3cnc(Sc4ccnc(N)c4Cl)c(N)n3)CC1)C2` [Compound 131], the IC50 in test [1] stood at 3 nM; in test [2] (setting [3]) it was 4 nM.

Take `C#Cc1ccc2c(c1)[C@@H](N)C1(CCN(c3cc(=O)n(-c4cccc(Cl)c4Cl)c(C)n3)CC1)C2` (atropisomer, axis not shown) [Compound 12, (S)-6-(1-amino-6-ethynyl-1,3-dihydrospiro[indene-2,4′-piperidin]-1′-yl)-3-(2,3-dichlorophenyl)-2-methylpyrimidin-4(3H)-one]: the IC50 was determined as 1 nM in test [1] and 7 nM in test [2] (Homo sapiens, MIA PaCa-2, pERK1/2 (Thr202/Tyr204) HTRF, 2 hours).

For `CC#Cc1ccc2c(c1)[C@@H](N)C1(CCN(c3cc(=O)n(-c4ccc(F)c(F)c4Cl)c(C)n3)CC1)C2` (atropisomer, axis not shown) [Compound 218], the results for the half-inhibitory concentration (IC50) in test [1] and in test [2] (setting [4]) were 104 nM and 944 nM, respectively.

For `C#Cc1ccc2c(c1)[C@@H](N)C1(CCN(c3ncc(Sc4ccnc(N)n4)c(N)n3)CC1)C2` [Compound 213], the IC50 is 68 nM in test [1] and 447 nM in test [2] (setting [3]).

`COc1c(F)ccc(-n2c(C)nc(N3CCC4(CC3)Cc3ccc(C#CCN(C)C)cc3[C@H]4N)cc2=O)c1F` [Compound 83]: the IC50 in test [1] came to 1 nM; in test [2] (setting [3]), 57 nM.

With `C#Cc1ccc2c(c1)[C@@H](N)C1(CCN(c3cc(=O)n(-c4cccc(Cl)c4Cl)c(C)n3)CC1)O2` [Compound 47], the IC50 in test [1] is 11 nM; in test [2] (setting [3]), 115 nM.

On to `C#Cc1ccc2c(c1)[C@@H](N)C1(CCN(c3cc(=O)n(-c4cccc(OC)c4Cl)c(C)n3)CC1)C2` [Compound 90], for which the IC50 in test [1] was 1.1 nM; in test [2] (setting [4]), 53 nM.

On to `C#Cc1ccc2c(c1)[C@@H](N)C1(CCN(c3nc(C)n(-c4ccc(OCC)cc4Cl)c(=O)c3C)CC1)C2` [Compound 92], for which the values for the IC50 in test [1] and in test [2] (setting [3]) were 11 nM and 117 nM, respectively.

Take `C#Cc1ccc2c(c1)CC1(CCN(c3ncc(-c4cn(C)c5ncccc45)c4nccn34)CC1)[C@@H]2N` [Compound 6]: the IC50 in test [1] is 420 nM; in test [2] (setting [3]), more than 3000 nM.

As to `C#Cc1cc(F)c2c(c1)[C@@H](N)C1(CCN(c3nc(C)n(-c4cccc(Cl)c4Cl)c(=O)c3F)CC1)C2` [Compound 167], the results for the IC50 in test [1] and in test [2] (setting [3]) were 25 nM and 124 nM, respectively.

As to `C#Cc1ccc2c(c1)[C@@H](N)C1(CCN(c3ncc(Sc4ccnc(N)n4)nc3CO)CC1)C2` [Compound 116], the IC50 in test [1] worked out at 0.5 nM; in test [2] (setting [3]), 1 nM.

Take `Cc1c(N2CCC3(CC2)Cc2ccc(C#CCN(C)C)cc2[C@H]3N)nc(C)n(-c2cccc(Cl)c2Cl)c1=O` (atropisomer, axis not shown) [Compound 50]: the IC50 in test [1] turned out to be 15 nM; in test [2] (setting [4]) it was 318 nM.

`CNC(=O)C#Cc1ccc2c(c1)[C@@H](N)C1(CCN(c3cc(=O)n(-c4ccc(F)c(OC)c4Cl)c(C)n3)CC1)C2` (atropisomer, axis not shown) [Compound 200]: the IC50 in test [1] was 25 nM; in test [2] (setting [4]) it was 512 nM.

As for `C#Cc1ccc2c(c1)[C@@H](N)C1(CCN(c3cc(=O)n(-c4ccc(F)c(OC)c4Cl)c(C)n3)CC1)C2` (atropisomer, axis not shown) [Compound 162], the IC50 in test [1] was determined as 34 nM; in test [2] (setting [4]), 155 nM.

Take `C#Cc1ccc2c(c1)CC1(CCN(c3ncc(Sc4ccnc(N)n4)c4nccn34)CC1)[C@@H]2N` [Compound 9]: the IC50 in test [1] was 4 nM; in test [2] (setting [3]) it was 38 nM.

Turning to `C#Cc1ccc2c(c1)OC1(CCN(c3cc(=O)n(-c4cccc(Cl)c4Cl)c(C)n3)CC1)[C@@H]2N` (atropisomer, axis not shown) [Compound 11], the IC50 stood at 97 nM in test [1] and 1150 nM in test [2] (setting [3]).

As to `CN(C)CC#Cc1ccc2c(c1)[C@@H](N)C1(CCN(c3ncc(Sc4ccnc(N)c4Cl)c4nccn34)CC1)C2` [Compound 71], the figures for the IC50 in test [1] and in test [2] (setting [3]) were 1 nM and 22 nM, respectively.

With `Cc1nc(N2CCC3(CC2)Cc2ccc(C#CCN(C)C)cc2[C@H]3N)cc(=O)n1-c1cccc(F)c1Cl` [Compound 74], the half-maximal inhibitory concentration (IC50) in test [1] was 4 nM; in test [2] (setting [3]), 223 nM.

For the molecule `C#Cc1ccc2c(c1)[C@@H](N)C1(CCN(c3cc(=O)n(-c4ccccc4Cl)c(C)n3)CC1)C2` (single isomer, unassigned) [Compound 57], the half-maximal inhibitory concentration (IC50) came out at 28 nM in test [1] and 526 nM in test [2] (setting [4]).

Regarding `CNC(=O)C#Cc1ccc2c(c1)[C@@H](N)C1(CCN(c3cc(=O)n(-c4ccc(F)c(F)c4Cl)c(C)n3)CC1)C2` (atropisomer, axis not shown) [Compound 210], the IC50 in test [1] came to 52 nM; in test [2] (setting [4]), 527 nM.

Consider `COCC#Cc1cccc2c1CC1(CCN(c3cc(=O)n(-c4cccc(Cl)c4Cl)c(C)n3)CC1)[C@@H]2N` [Compound 96], for which the 50% inhibitory concentration (IC50) is 5 nM in test [1] and 55 nM in test [2] (setting [3]).

For `CNC(=O)C#Cc1ccc2c(c1)[C@@H](N)C1(CCN(c3cc(=O)n(-c4cccc(OC)c4Cl)c(C)n3)CC1)C2` (atropisomer, axis not shown) [Compound 181], the 50% inhibitory concentration (IC50) in test [1] came out at 44 nM; in test [2] (setting [4]), 447 nM.

Regarding `C#Cc1ccc2c(c1)[C@@H](N)C1(CCN(c3nc(C)n(-c4ccc(F)cc4Cl)c(=O)c3C)CC1)C2` [Compound 54], the IC50 in test [1] came out at 3 nM; in test [2] (setting [4]), 36 nM.

On to `Cc1nc(N2CCC3(CC2)Cc2ccc(Nc4cnn(C)c4)cc2[C@H]3N)cc(=O)n1-c1cccc(Cl)c1Cl` [Compound 63], for which the IC50 amounted to 4 nM in test [1] and 177 nM in test [2] (setting [3]).

In the case of `C#Cc1ccc2c(c1)[C@@H](N)C1(CCN(c3cc(=O)n(-c4cccc(Cl)c4F)c(C)n3)CC1)C2` (atropisomer, axis not shown) [Compound 66], the values for the IC50 in test [1] and in test [2] (setting [4]) were 24 nM and 271 nM, respectively.

As to `C#Cc1ccc2c(c1)[C@@H](N)C1(CCN(c3cc(=O)n(-c4cccc(Cl)c4)c(C)n3)CC1)C2` [Compound 17], the IC50 was 18 nM in test [1] and 203 nM in test [2] (setting [3]).
